Measured values published in US9108999B2, “2′, 4′-difluoro-2′-methyl substituted nucleoside derivatives as inhibitors of HCV RNA replication” (priority 2011, dated 2015).
Like-named read-outs stand apart in the source and are kept apart here.

Tests used:
[1] = in vitro; details: human
[2] = tested on: genotype 1b replicon construct NK5.1 (HCV subgenomic RNA) in Huh7 cell line 2209-23; assay: microbe, parasite or virus in culture; format: cell-based, Hepatitis C Virus; details: read-out: HCV Replicon IC50
[3] = tested on: HCV replicon cells (2209-23); details: read-out: WST-1 Cytotoxicity CC50; replicon cells 2209-23, three days incubation, WST-1 OD 450 nm
[4] = Hepatitis C virus, Huh-7, 72 h, Huh7 replicon cells 2209-23, three days incubation, Renilla luciferase readout
[5] = Huh7 replicon cells 2209-23, three days incubation, Renilla luciferase readout

In the case of `CC(C)OC(=O)[C@H](C)NP(=O)(OC[C@@]1(F)O[C@@H](n2ccc(=O)[nH]c2=O)[C@](C)(F)[C@@H]1O)Oc1ccccc1` (stereo partly drawn) [Compound I-1, (S)-2-{[(2S,3S,4R,5R)-5-(2,4-Dioxo-3,4-dihydro-2H-pyrimidin-1-yl)-2,4-difluoro-3-hydroxy-4-methyl-tetrahydro-furan-2-ylmethoxy]-phenoxy-phosphorylamino}-propionic acid isopropyl ester], the CC50 at 3 days [1] is reported as > 100 µM.

For `CC(C)OC(=O)[C@H](C)NP(=O)(OC[C@@]1(F)O[C@@H](n2ccc(=O)[nH]c2=O)[C@](C)(F)[C@@H]1O)Oc1cccc2ccccc12` (stereo partly drawn) [Compound I-2, (S)-2-[[(2S,3S,4R,5R)-5-(2,4-Dioxo-3,4-dihydro-2H-pyrimidin-1-yl)-2,4-difluoro-3-hydroxy-4-methyl-tetrahydro-furan-2-ylmethoxy]-(naphthalen-1-yloxy)-phosphorylamino]-propionic acid isopropyl ester], the IC50 [2, 4] was 0.115 µM and the CC50 at 3 days [1] was > 100 µM.

For `CC(C)OC(=O)[C@H](C)NP(=O)(OC[C@@]1(F)O[C@@H](n2ccc(=O)[nH]c2=O)[C@](C)(F)[C@@H]1O)Oc1ccc2ccccc2c1` (stereo partly drawn) [Compound I-3, (S)-2-[[(2S,3S,4R,5R)-5-(2,4-Dioxo-3,4-dihydro-2H-pyrimidin-1-yl)-2,4-difluoro-3-hydroxy-4-methyl-tetrahydro-furan-2-ylmethoxy]-(naphthalen-2-yloxy)-phosphorylamino]-propionic acid isopropyl ester], the CC50 at 3 days [1] was > 100 µM.

In the case of `CC(C)OC(=O)[C@H](C)NP(=O)(OC[C@@]1(F)O[C@@H](n2ccc(=O)[nH]c2=O)[C@](C)(F)[C@@H]1OP(=O)(N[C@@H](C)C(=O)OC(C)C)Oc1ccc2ccccc2c1)Oc1ccc2ccccc2c1` (stereo partly drawn) [Compound I-4, (S)-2-[[(2S,3S,4R,5R)-5-(2,4-dioxo-3,4-dihydro-2H-pyrimidin-1-yl)-2,4-difluoro-3-[((S)-1-isopropoxycarbonyl-ethylamino)-(naphthalen-2-yloxy)-phosphoryloxy]-4-methyl-tetrahydro-furan-2-ylmethoxy]-(naphthalen-2-yloxy)-phosphorylamino]-propionic acid isopropyl ester], the IC50 ([2]; Hepatitis C virus, Huh-7, 72 h) is reported as 7.19 µM and the CC50 at 3 days [1] is reported as > 100 µM.

For `CCC(=O)O[C@H]1[C@@](C)(F)[C@H](n2ccc(=O)[nH]c2=O)O[C@]1(F)COP(=O)(N[C@@H](C)C(=O)OC(C)C)Oc1cccc2ccccc12` (stereo partly drawn) [Compound I-5, (S)-2-[[(2S,3S,4R,5R)-5-(2,4-Dioxo-3,4-dihydro-2H-pyrimidin-1-yl)-2,4-difluoro-4-methyl-3-propionyloxy-tetrahydro-furan-2-ylmethoxy]-(naphthalen-1-yloxy)-phosphorylamino]-propionic acid isopropyl ester], the IC50 [2, 4] was 0.151 µM and the CC50 at 3 days [1] was 67.8 µM.

In the case of `CC(C)OC(=O)[C@H](C)N[P@](=O)(OC[C@@]1(F)O[C@@H](n2ccc(=O)[nH]c2=O)[C@](C)(F)[C@@H]1O)Oc1ccc2ccccc2c1` [Compound I-6], the IC50 ([2]; Hepatitis C virus, Huh-7, 72 h) is reported as 0.0537 µM and the CC50 at 3 days [1] is reported as > 100 µM.

With `CC(C)OC(=O)[C@H](C)N[P@@](=O)(OC[C@@]1(F)O[C@@H](n2ccc(=O)[nH]c2=O)[C@](C)(F)[C@@H]1O)Oc1ccc2ccccc2c1` [Compound I-7] the IC50 [2, 5] was 0.202 µM and the CC50 [3] was > 100 µM.

For `CC(C)OC(=O)[C@H](C)N[P@@](=O)(OC[C@@]1(F)O[C@@H](n2ccc(=O)[nH]c2=O)[C@](C)(F)[C@@H]1O)Oc1cccc2ccccc12` [Compound I-8, (S)-2-[(R)-[(2S,3S,4R,5R)-5-(2,4-Dioxo-3,4-dihydro-2H-pyrimidin-1-yl)-2,4-difluoro-3-hydroxy-4-methyl-tetrahydro-furan-2-ylmethoxy]-(naphthalen-1-yloxy)-phosphorylamino]-propionic acid isopropyl ester], the IC50 [2, 5] was 1.03 µM and the CC50 [3] was > 100 µM.

For `CC(C)OC(=O)[C@H](C)N[P@](=O)(OC[C@@]1(F)O[C@@H](n2ccc(=O)[nH]c2=O)[C@](C)(F)[C@@H]1O)Oc1cccc2ccccc12` [Compound I-9, (S)-2-[(S)-[(2S,3S,4R,5R)-5-(2,4-Dioxo-3,4-dihydro-2H-pyrimidin-1-yl)-2,4-difluoro-3-hydroxy-4-methyl-tetrahydro-furan-2-ylmethoxy]-(naphthalen-1-yloxy)-phosphorylamino]-propionic acid isopropyl ester], the IC50 [2, 4] was 0.0602 µM and the CC50 at 3 days [1] was > 100 µM.

In the case of `CC(C)OC(=O)[C@H](C)N[P@](=O)(OC[C@@]1(F)O[C@@H](n2ccc(=O)[nH]c2=O)[C@](C)(F)[C@@H]1O)Oc1ccccc1` [Compound I-10, (S)-2-{(S)-[(2S,3S,4R,5R)-5-(2,4-Dioxo-3,4-dihydro-2H-pyrimidin-1-yl)-2,4-difluoro-3-hydroxy-4-methyl-tetrahydro-furan-2-ylmethoxy]-phenoxy-phosphorylamino}-propionic acid isopropyl ester], the IC50 [2, 4] is reported as 0.171 µM and the CC50 at 3 days [1] is reported as > 100 µM.

For `CC(C)OC(=O)[C@H](C)N[P@@](=O)(OC[C@@]1(F)O[C@@H](n2ccc(=O)[nH]c2=O)[C@](C)(F)[C@@H]1O)Oc1ccccc1` [Compound I-11, (S)-2-{(R)-[(2S,3S,4R,5R)-5-(2,4-Dioxo-3,4-dihydro-2H-pyrimidin-1-yl)-2,4-difluoro-3-hydroxy-4-methyl-tetrahydro-furan-2-ylmethoxy]-phenoxy-phosphorylamino}-propionic acid isopropyl ester], the IC50 [2, 4] was 1.31 µM and the CC50 at 3 days [1] was 95.6 µM.

In the case of `CC(C)OC(=O)[C@H](C)N[P@](=O)(OC[C@@]1(F)O[C@@H](n2cc(Br)c(=O)[nH]c2=O)[C@](C)(F)[C@@H]1O)Oc1cccc2ccccc12` [Compound I-12, (S)-2-[(S)-[(2S,3S,4R,5R)-5-(5-Bromo-2,4-dioxo-3,4-dihydro-2H-pyrimidin-1-yl)-2,4-difluoro-3-hydroxy-4-methyl-tetrahydro-furan-2-ylmethoxy]-(naphthalen-1-yloxy)-phosphorylamino]-propionic acid isopropyl ester], the IC50 [2, 4] is reported as 17.4 µM and the CC50 at 3 days [1] is reported as 34.8 µM.

In the case of `CC(C)OC(=O)[C@H](C)N[P@](=O)(OC[C@@]1(F)O[C@@H](n2cc(Br)c(=O)[nH]c2=O)[C@](C)(F)[C@@H]1O)Oc1ccc2ccccc2c1` [Compound I-13], the IC50 ([2]; Hepatitis C virus, Huh-7, 72 h) is reported as 38.5 µM and the CC50 at 3 days [1] is reported as > 100 µM.

Work on `CC(C)OC(=O)[C@H](C)N[P@@](=O)(OC[C@@]1(F)O[C@@H](n2cc(Br)c(=O)[nH]c2=O)[C@](C)(F)[C@@H]1O)Oc1cccc2ccccc12` [Compound I-14, (S)-2-[(R)-[(2S,3S,4R,5R)-5-(5-Bromo-2,4-dioxo-3,4-dihydro-2H-pyrimidin-1-yl)-2,4-difluoro-3-hydroxy-4-methyl-tetrahydro-furan-2-ylmethoxy]-(naphthalen-1-yloxy)-phosphorylamino]-propionic acid isopropyl ester] yielded an IC50 [2, 5] of 9.64 µM and a CC50 [3] of 50.8 µM.

`CC(C)OC(=O)[C@H](C)N[P@@](=O)(OC[C@@]1(F)O[C@@H](n2cc(Br)c(=O)[nH]c2=O)[C@](C)(F)[C@@H]1O)Oc1ccc2ccccc2c1` [Compound I-15] gave an IC50 [2, 5] of 13.2 µM and a CC50 [3] of 38.5 µM.

With `CC(C)OC(=O)[C@H](C)NP(=O)(OC[C@@]1(F)O[C@@H](n2cc(Br)c(=O)[nH]c2=O)[C@](C)(F)[C@@H]1O)Oc1ccc2ccccc2c1` (stereo partly drawn) [Compound I-16, (S)-2-[[(2S,3S,4R,5R)-5-(5-Bromo-2,4-dioxo-3,4-dihydro-2H-pyrimidin-1-yl)-2,4-difluoro-3-hydroxy-4-methyl-tetrahydro-furan-2-ylmethoxy]-(naphthalen-2-yloxy)-phosphorylamino]-propionic acid isopropyl ester] the IC50 ([2]; Hepatitis C virus, Huh-7, 72 h) was 77.6 µM and the CC50 at 3 days [1] was > 100 µM.
